Source: PMC4389228, “Ainsliadimer A selectively inhibits IKKα/β by covalently binding a conserved cysteine” (Nature Communications, 2015)

Assays:
IKKα = target: T1, IKKα (Homo sapiens, UniProt O15111); test: direct biotin labelling of purified protein, streptavidin pull-down and blot; format: binding
T1 construct: gene CHUK; purified Flag-IKKα
T1 sequence (O15111 1-745): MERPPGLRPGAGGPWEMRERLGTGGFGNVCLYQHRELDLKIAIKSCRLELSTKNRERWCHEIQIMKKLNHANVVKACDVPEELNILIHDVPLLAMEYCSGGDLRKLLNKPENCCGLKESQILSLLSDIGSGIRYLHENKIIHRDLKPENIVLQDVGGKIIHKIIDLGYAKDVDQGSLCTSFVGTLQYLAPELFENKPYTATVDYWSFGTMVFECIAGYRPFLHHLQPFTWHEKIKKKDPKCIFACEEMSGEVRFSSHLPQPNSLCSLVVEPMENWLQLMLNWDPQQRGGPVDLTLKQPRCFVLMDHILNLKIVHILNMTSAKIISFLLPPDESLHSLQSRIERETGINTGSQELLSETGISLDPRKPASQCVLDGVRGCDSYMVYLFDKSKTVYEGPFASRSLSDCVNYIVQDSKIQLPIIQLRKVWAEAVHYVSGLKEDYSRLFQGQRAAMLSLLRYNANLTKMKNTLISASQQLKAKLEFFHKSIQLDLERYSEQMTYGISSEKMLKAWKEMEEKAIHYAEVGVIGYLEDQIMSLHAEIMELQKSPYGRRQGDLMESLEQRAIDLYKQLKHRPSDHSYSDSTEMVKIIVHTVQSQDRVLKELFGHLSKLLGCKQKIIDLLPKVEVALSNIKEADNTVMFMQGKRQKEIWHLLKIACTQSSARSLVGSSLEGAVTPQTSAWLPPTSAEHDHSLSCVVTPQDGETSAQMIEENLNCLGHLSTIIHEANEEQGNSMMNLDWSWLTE

IKKβ = target: T2, IKKβ (Homo sapiens, UniProt O14920); test: direct biotin labelling of purified protein, streptavidin pull-down and blot, competed by ainsliadimer A; time-dependent binding
T2 construct: gene IKBKB; purified Flag-IKKβ
T2 sequence (O14920 1-756): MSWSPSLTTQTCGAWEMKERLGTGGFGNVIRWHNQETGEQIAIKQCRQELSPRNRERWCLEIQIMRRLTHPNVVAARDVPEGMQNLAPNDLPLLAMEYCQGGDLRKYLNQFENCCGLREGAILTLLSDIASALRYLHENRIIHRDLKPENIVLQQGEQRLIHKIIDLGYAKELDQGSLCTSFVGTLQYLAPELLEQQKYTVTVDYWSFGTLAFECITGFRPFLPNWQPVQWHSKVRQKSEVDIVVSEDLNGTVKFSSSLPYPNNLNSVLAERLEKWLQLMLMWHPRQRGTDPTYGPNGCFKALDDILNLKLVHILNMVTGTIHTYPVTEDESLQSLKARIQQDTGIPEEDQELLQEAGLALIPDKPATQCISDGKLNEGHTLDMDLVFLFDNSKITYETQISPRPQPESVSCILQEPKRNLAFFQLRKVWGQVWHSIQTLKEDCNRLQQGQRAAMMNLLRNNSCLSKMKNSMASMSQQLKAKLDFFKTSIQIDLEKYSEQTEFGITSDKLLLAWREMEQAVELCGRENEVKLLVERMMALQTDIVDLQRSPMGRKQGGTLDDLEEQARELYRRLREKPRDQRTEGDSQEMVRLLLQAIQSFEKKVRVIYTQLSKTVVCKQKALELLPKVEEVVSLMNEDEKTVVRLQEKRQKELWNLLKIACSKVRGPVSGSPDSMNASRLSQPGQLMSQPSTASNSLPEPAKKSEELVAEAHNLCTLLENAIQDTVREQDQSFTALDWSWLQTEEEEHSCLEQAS

`C=C1C(=O)O[C@@H]2[C@@H]3[C@@H](C[C@H](OC(=O)CCOCCOCCOCCNC(=O)CCCC[C@@H]4SC[C@@H]5NC(=O)N[C@@H]54)[C@]34CC[C@]3(O)[C@@H]5[C@H]6OC(=O)C(=C)[C@@H]6CCC(=C)[C@@H]5C[C@]43O)C(=C)CC[C@@H]12` [Probe] was tested, and the “direct biotin labelling of purified protein, streptavidin pull-down and blot” value (IKKα) was “suggesting that there is a strong interaction between Probe and recombinant IKKα” and the “direct biotin labelling of purified protein, streptavidin pull-down and blot, co” value (IKKβ) was “we also observed a similar interaction pattern between Probe and recombinant IKKβ (Fig. 4d)”.
